Test results from PubChem BioAssay (NCI).
“And” between values parts separate entries of the source, which are not always exact repeats. Equal values may be shown once.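 Method: 48-hour compound exposure of cells in 96-well plates, five concentrations, linear interpolation of endpoints. Here, GI50 denotes the concentration required for 50% inhibition of growth. TGI is the concentration that stops growth completely.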

Columns and labels:
Experiment in all cases: NCI anticancer screen, dose series, 48 h
A549 NSCLC = system: A549 NSCLC
CAKI-1 renal = system: CAKI-1 renal
CCRF-CEM leukemia = system: CCRF-CEM leukemia
HOP-92 NSCLC = system: HOP-92 NSCLC
MALME-3M melanoma = system: MALME-3M melanoma
MCF7 breast = system: MCF7 breast
NCI-H23 lung = system: NCI-H23 lung
SK-OV-3 ovarian = system: SK-OV-3 ovarian
SR leukemia = system: SR leukemia
UACC-62 melanoma = system: UACC-62 melanoma

Row | SMILES | GI50 (A549 NSCLC) | TGI (A549 NSCLC) | GI50 (CAKI-1 renal) | TGI (CAKI-1 renal) | GI50 (CCRF-CEM leukemia) | TGI (CCRF-CEM leukemia) | GI50 (HOP-92 NSCLC) | TGI (HOP-92 NSCLC) | GI50 (MALME-3M melanoma) | TGI (MALME-3M melanoma) | GI50 (MCF7 breast) | TGI (MCF7 breast) | GI50 (NCI-H23 lung) | TGI (NCI-H23 lung) | GI50 (SK-OV-3 ovarian) | TGI (SK-OV-3 ovarian) | GI50 (SR leukemia) | TGI (SR leukemia) | GI50 (UACC-62 melanoma) | TGI (UACC-62 melanoma)
1 | C[C@]12CC[C@@H]3c4ccc(O)cc4C(O)C[C@H]3[C@@H]1CCC2=O (some centres not stated) | > 100 µM | > 100 µM | > 100 µM | > 100 µM | > 100 µM | > 100 µM | 53.8 µM | > 100 µM | > 100 µM | > 100 µM | > 100 µM | > 100 µM | > 100 µM | > 100 µM | > 100 µM | > 100 µM | > 100 µM | > 100 µM | > 100 µM | > 100 µM
2 | CSc1ccc(/C=C2\C=C(CC(=O)NCc3ccc(C(=O)c4ccccc4)cc3)c3cc(F)ccc32)cc1 | 0.137 µM | 4.8 µM | 0.0741 µM | 8.23 µM | 0.0337 µM | 38.9 µM | 0.179 µM | 6 µM | 0.215 µM | 44.7 µM | – | 12.2 µM | 0.036 µM | 2.89 µM | 0.0399 µM | 0.704 µM | 0.0306 µM | 26.2 µM | 0.0591 µM | 10.7 µM
3 | CCOc1c(Cl)cc(CNC(C)C(O)c2ccccc2)cc1OC (configuration not stated) | 43.9 µM | > 100 µM | 15.1 µM | 54.7 µM | 35.6 µM | > 100 µM | 12.9 µM | 48.5 µM | 16.6 µM | 33.6 µM | 17.8 µM | 45.2 µM | 31.3 µM | > 100 µM | 41.1 µM | > 100 µM | 17.1 µM | 52.5 µM | 17.9 µM | 38.9 µM
4 | O=C1CCCN1CC#CCN1CCCC1 | > 100 µM | > 100 µM | > 100 µM | > 100 µM | > 100 µM | > 100 µM | > 100 µM | > 100 µM | > 100 µM | > 100 µM | > 100 µM | > 100 µM | > 100 µM | > 100 µM | > 100 µM | > 100 µM | > 100 µM | > 100 µM | > 100 µM | > 100 µM
5 | c1nnc(NCNc2nncs2)s1 | – | > 100 µM | – | > 100 µM | – | > 100 µM | – | > 100 µM | – | > 100 µM | – | > 100 µM | – | > 100 µM | – | > 100 µM | – | > 100 µM | – | > 100 µM
6 | O=C1Nc2cccc3cc(NCC(O)CCl)cc1c23 (configuration not stated) | – | > 100 µM | – | > 100 µM | – | > 100 µM | – | > 100 µM | – | > 100 µM | – | > 100 µM | – | > 100 µM | – | > 100 µM | – | 48 µM | – | > 100 µM
7 | CN[C@@H]1C[C@H]2O[C@@](C)([C@@H]1OC)n1c3ccccc3c3c4c(c5c6ccccc6n2c5c31)C(=O)N[C@@H]4O | 0.0328 µM | 0.3 µM and 2.87 µM | – | 0.0229 µM | – | 1.39 µM | < 0.0205 µM | – | 0.0154 µM | 0.0589 µM and 0.461 µM | – | 0.3 µM and 2.51 µM | – | 1.53 µM | 0.0467 µM | 0.187 µM and 0.28 µM | – | 0.833 µM | – | 0.908 µM
8 | CC(C)[C@H]1C(=O)N[C@@H](CCCN=C(N)N)C(=O)NCC(=O)N[C@@H](CC(=O)O)C(=O)N[C@H](Cc2ccccc2)C(=O)N1C | 31.8 µM | > 100 µM | > 28.7 µM | > 100 µM | > 100 µM | > 100 µM | 0.385 µM | 2.47 µM | > 100 µM | > 100 µM | 1.4 µM | 3.32 µM | 10.6 µM | 67.6 µM | > 100 µM | > 100 µM | > 100 µM | > 100 µM | > 100 µM | > 100 µM
9 | Cc1ccc(SC(=O)N2C(=S)NC(=NC3CCCCC3)C23CCCCC3)cc1 | – | > 100 µM | – | > 100 µM | – | > 100 µM | – | > 100 µM | – | > 100 µM | – | > 100 µM | – | > 100 µM | – | > 100 µM | – | > 100 µM | – | > 100 µM
10 | CCN(CC)CCCC(C)Nc1c2ccc(C)cc2nc2ccc(OC)cc12 (configuration not stated) | 0.6 µM | 3.25 µM | 2.68 µM | 8.98 µM | 1.82 µM | 9.9 µM | 0.885 µM | 5.1 µM | 1.73 µM | 3.53 µM | 0.837 µM | 11.1 µM | 1.84 µM | 5.86 µM | 2.42 µM | 15.7 µM | 2.04 µM | 7.18 µM | 10.5 µM | 27.9 µM
11 | COc1ccc(Cl)cc1Nc1nc(C(F)(F)F)ccc1C(=O)N/N=C/c1cc(OC)c(OC)c(OC)c1 | 2.64 µM | 6.64 µM | 1.61 µM | 4.98 µM | 1.27 µM | > 100 µM | 2.09 µM | 7.56 µM | 1.07 µM | 4.05 µM | 1.52 µM | 7.46 µM | 5.35 µM | 40.6 µM | 3.04 µM | 15 µM | 1.19 µM | 4.19 µM | 2.09 µM | 3.74 µM
12 | CC1CCN(CC(=O)N2c3ccccc3Sc3cc4ccccc4cc32)CC1 | – | > 100 µM | – | > 100 µM | – | > 100 µM | – | > 100 µM | – | > 100 µM | – | > 100 µM | – | > 100 µM | – | > 100 µM | – | > 100 µM | – | > 100 µM
